Experimental data as given in PMC5671894 (Journal of biological inorganic chemistry : JBIC : a …, 2017).
Read-outs that look alike come from different tables or passages of the source.

How the values were obtained:
PTP1B [1] = details: substrate pNPP; cited from earlier work
PTP1B [2] = details: ref Makinen, M. W. and Zhou, K. I., unpublished observations; cited from earlier work
[3] = target: T1, soluble portion of human PTP1B (residues 1-321) (Homo sapiens, UniProt P18031); assay: Steady-state inhibition of PTP1B-catalyzed hydrolysis of pNPP; assay type: biochemical; details: substrate pNPP; for Ki: 0.1 M NaCl, pH 5, 22° C, N2-purged
T1 sequence (P18031 1-321): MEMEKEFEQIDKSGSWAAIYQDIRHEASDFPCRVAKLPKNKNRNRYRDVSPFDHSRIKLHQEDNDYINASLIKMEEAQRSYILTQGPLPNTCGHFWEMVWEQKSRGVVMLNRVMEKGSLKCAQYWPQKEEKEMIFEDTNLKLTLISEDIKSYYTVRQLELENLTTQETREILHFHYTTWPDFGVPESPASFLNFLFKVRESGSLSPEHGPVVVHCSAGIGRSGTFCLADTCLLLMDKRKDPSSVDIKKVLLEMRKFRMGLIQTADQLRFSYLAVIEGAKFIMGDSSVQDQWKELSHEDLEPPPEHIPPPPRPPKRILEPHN

[4] = target: T1, soluble portion of human PTP1B (residues 1-321); assay type: biochemical
[5] = system: fused protein construct of glutathione-S-transferase and the full length PTP1B polypeptide chain (435 residues); details: substrate pNPP; cited from earlier work
PTP1B [6] = details: substrate DADEpYLIPQQG; malachite green, 30 min, not steady-state; cited from earlier work
[7] = system: Rat PTP1 (residues 1–323); details: 0.1 M ionic strength, pH 5.5; cited from earlier work
[8] = target: T1, soluble portion of human PTP1B (residues 1-321); assay type: biochemical; details: substrate hydrolysis, no inhibitor; this study

**Q.** Which mode of inhibition (PTP1B [1]) does the source give for `CCc1oc2cc(S(=O)(=O)Nc3ccc(S(N)(=O)=O)cc3)ccc2c1C(=O)c1cc(Br)c(O)c(Br)c1` [Compound 2, 3-(3,5-dibromo-4-hydroxy-benzoyl)-2-ethyl-benzofuran-6-sulfonic acid (4-sulfamoyl-phenyl)amide] here?
**A.** noncompetitive inhibition

**Q.** For `CC(=O)/C=C(/C)O` [Mg(acac)2], which Ki (PTP1B [2]) is on record?
**A.** > 600 µM

**Q.** With `CCc1occc(=O)c1[O-].CCc1occc(=O)c1[O-].[O]=[V+2]` [VO(Et-malto)2, bis(2-ethyl-maltolato)oxidovanadium(IV)] as the compound, how does the mode of inhibition [3] read?
**A.** noncompetitive inhibition

**Q.** What about the Ki [3] of the same compound?
**A.** 14.8 ± 1.4 µM

**Q.** What about the mode of inhibition ([4]; substrate EGFR^988-998 (DADEpYLIPQQG)) of the same compound?
**A.** noncompetitive

**Q.** What about the Ki ([4]; substrate EGFR^988–998, 0.1 M NaCl, pH 6, 20° C, N2-purged) of the same compound?
**A.** 0.14 ± 0.01 µM

**Q.** For `Cc1occc(=O)c1[O-].Cc1occc(=O)c1[O-].[O]=[V+2]` [VO(Me-malto)2, bis(2-methyl-maltolato)oxidovanadium(IV)], which mode of inhibition [5] is on record?
**A.** mixed inhibition

**Q.** For `CC(=O)/C=C(/C)[O-].CC(=O)/C=C(/C)[O-].[O]=[V+2]` [VO(acac)2, bis(acetylacetonato)oxidovanadium(IV)], which mode of inhibition (PTP1B [6]) is on record?
**A.** uncompetitive behavior

**Q.** For `Cc1[nH]ccc(=O)c1[O-].Cc1[nH]ccc(=O)c1[O-].[O]=[V+2]` [VO(mpp)2, bis(3-hydroxy-2-methyl-4(1H)pyridinonato)oxidovanadium(IV)], which mode of inhibition [3] is on record?
**A.** competitive inhibition

**Q.** What about the Ki [3] of the same compound?
**A.** 38.2 ± 0.5 µM

**Q.** With `O=[N+]([O-])c1ccc(OP(=O)(O)O)cc1` [pNPP, para-nitrophenylphosphate] as the compound, how does the Km [7] read?
**A.** 339 ± 16 µM

**Q.** What about the kcat [7] of the same compound?
**A.** 69.2 ± 1.1 s⁻¹

**Q.** What about the Km [8] of the same compound?
**A.** 460 ± 120 µM

**Q.** What about the kcat [8] of the same compound?
**A.** 62.9 ± 12.0 s⁻¹
